Earlier results on one compound are cited in US20140106026A1, “ARTICLE AND METHOD FOR TREATING, PREVENTING AND AMELIORATING ALCOHOL-INDUCED WERNICKE-KORSAKOFF SYNDROME” (priority 2012, published 2014).

Where two headings read alike, the source gives them in different places.

Assay in series [1]: not given
This is another data set of the same source.

Assay in series [2]: not given
The source holds these as a separate data set.

The conditions of series [3]: oral intake.

`Cc1ncc(C[n+]2csc(CCO)c2C)c(N)n1` [Thiamine]: the stability entry was “stable” (at acidic pH) and “unstable” (in alkaline solutions). For the same compound, the stability towards sulfite entry (sulfite as contained in wine and cordials) is reported as “degrades”. Also, the solubility result is given as “practically insoluble” in series [1] (in acetone, ether, chloroform, and benzene); “soluble” in series [1] (in water, methanol, and glycerol). Moreover, the “half-life, in vivo” value in series [2] was “approximately two”. The “intake above which decline in thiamine absorption occurs” value in series [3] is “above 5 mg”.
